In publication PMC9768162, “Synthesis of macrocyclic nucleoside antibacterials and their interactions with MraY” (Nature Communications, 2022):
≈ marks a conversion by molar mass, not a printed value. Where two headings read alike, the source gives them in different places. Marks after values point to notes of the source that are not given here.

Legend:
[1] = tested on: A. baumannii; test: Antibacterial activity, MIC by microdilution broth method (CLSI); format: cell-based; conditions: Acinetobacter baumannii, ATCC19606; A. baumannii ATCC 19606; CA-MHB, 37 °C, 20 h
[2] = tested on: E. faecalis; test: as above; format: cell-based; conditions: for MIC: Enterococcus faecalis
[3] = tested on: M. tuberculosis; test: MIC in 7H9 liquid medium, 2 weeks; format: cell-based; conditions: Mycobacterium tuberculosis, 336 h, M. tuberculosis H37Rv, 37 °C, minimum concentration inhibiting at least 50% of growth
[4] = molecular target: T1, MraYSA (S. aureus MraY enzyme) (Staphylococcus aureus, UniProt Q2FZ93); test: Fluorescence-based MraY inhibitory assay (dansylated Park's nucleotide); conditions: for MraYSA activity, source data of Fig. 7b, average: average of n=1-3
T1 sequence (Q2FZ93 1-321): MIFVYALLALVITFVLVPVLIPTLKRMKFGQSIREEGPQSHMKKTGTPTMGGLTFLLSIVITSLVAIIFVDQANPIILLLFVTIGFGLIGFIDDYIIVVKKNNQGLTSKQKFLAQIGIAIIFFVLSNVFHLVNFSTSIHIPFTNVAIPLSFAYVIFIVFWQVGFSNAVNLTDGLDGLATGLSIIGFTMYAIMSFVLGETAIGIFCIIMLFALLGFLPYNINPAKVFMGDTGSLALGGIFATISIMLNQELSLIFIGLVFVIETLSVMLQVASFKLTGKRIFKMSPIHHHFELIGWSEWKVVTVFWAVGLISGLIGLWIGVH

[5] = tested on: S. aureus; test: Antibacterial activity, MIC by microdilution broth method (CLSI); format: cell-based, Staphylococcus aureus; conditions: Staphylococcus aureus
[6] = tested on: M. avium; test: MIC in 7H9 liquid medium, 2 weeks; format: cell-based; conditions: Mycobacterium avium, ATCC25291, 336 h, M. avium ATCC 25291, 37 °C, minimum concentration inhibiting at least 50% of growth
[7] = tested on: P. aeruginosa; test: Antibacterial activity, MIC by microdilution broth method (CLSI); format: cell-based; conditions: Pseudomonas aeruginosa, ATCC27853; P. aeruginosa ATCC 27853; CA-MHB, 37 °C, 20 h
[8] = tested on: E. coli; test: as above; conditions: E. coli ATCC 25922; CA-MHB, 37 °C, 20 h
[9] = tested on: E. faecium; test: as above; format: cell-based, Enterococcus faecium; conditions: for MIC: Enterococcus faecium, read-out: MIC
[10] = tested on: K. pneumoniae; test: as above; format: cell-based; conditions: Klebsiella pneumoniae, ATCC13883; K. pneumoniae ATCC 13883; CA-MHB, 37 °C, 20 h
[11] = tested on: E. cloacae; test: as above; format: cell-based; conditions: Enterobacter cloacae, ATCC13047; E. cloacae ATCC 13047; CA-MHB, 37 °C, 20 h
[12] = tested on: vancomycin-resistant Enterococci (VRE), clinically isolated E. faecium and E. faecalis; format: cell-based; conditions: VRE E. faecium ATCC 51559, 51858, E. faecalis 51299 and clinically isolated E. faecium and E. faecalis
[13] = tested on: K. pneumoniae; design: method as in PMID 24014169; conditions: K. pneumoniae ATCC 13883; cited from earlier work
[14] = tested on: S. aureus; conditions: S. aureus ATCC 6538P, cited from earlier work
[15] = tested on: E. faecalis; design: method as in PMID 24014169; conditions: E. faecalis ATCC 29212; cited from earlier work
[16] = tested on: Gram-positive bacteria; design: method as in PMID 24014169; conditions: range over strains; cited from earlier work
[17] = tested on: A. baumannii; design: method as in PMID 24014169; conditions: A. baumannii ATCC 19606; cited from earlier work
[18] = tested on: E. faecium; design: method as in PMID 24014169; conditions: cited from earlier work
[19] = tested on: P. aeruginosa; design: method as in PMID 24014169; conditions: P. aeruginosa ATCC 15692 (footnote e); cited from earlier work
[20] = tested on: E. cloacae; design: method as in PMID 24014169; conditions: E. cloacae ATCC 13047; cited from earlier work
[21] = tested on: MraY (E. coli); design: method as in PMID 24014169; conditions: cited from earlier work

CCCCCCCCCCCCCCCC(=O)O[C@@H]1C[C@@H]2CN(C1)[C@H](C(=O)O)[C@@H]([C@H]1O[C@@H](n3ccc(=O)[nH]c3=O)[C@H](O)[C@@H]1O)O[C@@H]1O[C@H](CN2)[C@@H](O)[C@H]1O [SPM-3]
MIC [1]: > 64 µg/mL | MIC ([2]; ATCC 51299 / VRE, E. faecalis (VRE) ATCC 51299): 1 µg/mL (≈ 1.3 µM) | MIC ([2]; clinically isolated E. faecalis strain 21): 0.5 µg/mL (≈ 0.65 µM) | MIC ([2]; clinically isolated E. faecalis strain 22): 0.5 µg/mL (≈ 0.65 µM) | MIC ([2]; clinically isolated E. faecalis strain 23): 1 µg/mL (≈ 1.3 µM) | MIC ([2]; clinically isolated E. faecalis strain 24): 1 µg/mL (≈ 1.3 µM) | MIC ([2]; clinically isolated E. faecalis strain 25): 0.5 µg/mL (≈ 0.65 µM) | MIC ([2]; clinically isolated E. faecalis strain 26): 0.5 µg/mL (≈ 0.65 µM) | MIC ([2]; clinically isolated E. faecalis strain 27): 0.5 µg/mL (≈ 0.65 µM) | MIC ([2]; clinically isolated E. faecalis strain 28): 1 µg/mL (≈ 1.3 µM) | MIC ([2]; clinically isolated E. faecalis strain 29): 1 µg/mL (≈ 1.3 µM) | MIC ([2]; clinically isolated E. faecalis strain 30): 0.5 µg/mL (≈ 0.65 µM) | MIC ([2]; clinically isolated E. faecalis strain 31): 1 µg/mL (≈ 1.3 µM) | MIC ([2]; clinically isolated E. faecalis strain 32): 1 µg/mL (≈ 1.3 µM) | MIC ([2]; clinically isolated E. faecalis strain 33): 1 µg/mL (≈ 1.3 µM) | MIC ([2]; clinically isolated E. faecalis strain 34): 0.5 µg/mL (≈ 0.65 µM) | MIC ([2]; clinically isolated E. faecalis strain 35): 1 µg/mL (≈ 1.3 µM) | MIC (range over strains) ([2]; clinically isolated E. faecalis (15 strains)): 0.5 to 1 µg/mL | MIC [3]: 16 µg/mL (≈ 20.8 µM) | IC50 [4]: 0.041 µM | MraYSA activity, source data of Fig. 7b, average ([4]; compound 0.0001 µM): 97.0831 | MraYSA activity, source data of Fig. 7b, average ([4]; compound 0.001 µM): 91.2486 | MraYSA activity, source data of Fig. 7b, average ([4]; compound 0.01 µM): 63.9982 | MraYSA activity, source data of Fig. 7b, average ([4]; compound 0.1 µM): 42.189 | MraYSA activity, source data of Fig. 7b, average ([4]; compound 1 µM): 10.7538 | MraYSA activity, source data of Fig. 7b, average ([4]; compound 10 µM): 6.7446 | MraYSA activity, source data of Fig. 7b, average ([4]; compound 100 µM): 3.028 | fold weaker compared to SPM-1 (MraYSA IC50) ([4]; ratio of IC50 values, SPM-3 vs SPM-1): 4.5 fold | MIC ([5]; ATCC29213, 20 h, S. aureus ATCC 29213, CA-MHB, 37 °C, 20 h): 8 µg/mL (≈ 10.4 µM) | MIC ([5]; MRSA, 20 h, S. aureus (MRSA) JE2, CA-MHB, 37 °C, performed once): 8 µg/mL (≈ 10.4 µM) | MIC ([5]; MRSA, clinically isolated MRSA #1958): 16 µg/mL (≈ 20.8 µM) | MIC ([5]; MRSA, clinically isolated MRSA #2071): 16 µg/mL (≈ 20.8 µM) | MIC ([5]; MRSA, clinically isolated MRSA #2110): > 64 µg/mL | MIC ([5]; MRSA, clinically isolated MRSA #2310): 32 µg/mL (≈ 41.6 µM) | MIC ([5]; MRSA, clinically isolated MRSA #2334): > 64 µg/mL | MIC ([5]; MRSA, clinically isolated MRSA #2931): 4 µg/mL (≈ 5.2 µM) | MIC ([5]; MRSA, clinically isolated MRSA #2932): 32 µg/mL (≈ 41.6 µM) | MIC ([5]; MRSA, clinically isolated MRSA #2933): 8 µg/mL (≈ 10.4 µM) | MIC ([5]; MRSA, clinically isolated MRSA #2934): 8 µg/mL (≈ 10.4 µM) | MIC ([5]; MRSA, clinically isolated MRSA #2935): 32 µg/mL (≈ 41.6 µM) | MIC [6]: 4 µg/mL (≈ 5.2 µM) | MIC [7]: > 64 µg/mL | MIC [8]: >64 µg/mL | MIC ([9]; ATCC35667, 20 h, E. faecium ATCC 35667, CA-MHB, 37 °C, 20 h): 2 µg/mL (≈ 2.6 µM) | MIC ([9]; ATCC 51559 / VRE, E. faecium (VRE) ATCC 51559): 2 µg/mL (≈ 2.6 µM) | MIC ([9]; ATCC 51858 / VRE, E. faecium (VRE) ATCC 51858): 8 µg/mL (≈ 10.4 µM) | MIC ([9]; clinically isolated E. faecium strain 1): 2 µg/mL (≈ 2.6 µM) | MIC ([9]; clinically isolated E. faecium strain 2): 2 µg/mL (≈ 2.6 µM) | MIC ([9]; clinically isolated E. faecium strain 3): 4 µg/mL (≈ 5.2 µM) | MIC ([9]; clinically isolated E. faecium strain 4): 1 µg/mL (≈ 1.3 µM) | MIC ([9]; clinically isolated E. faecium strain 5): 2 µg/mL (≈ 2.6 µM) | MIC ([9]; clinically isolated E. faecium strain 7): 2 µg/mL (≈ 2.6 µM) | MIC ([9]; clinically isolated E. faecium strain 8): 2 µg/mL (≈ 2.6 µM) | MIC ([9]; clinically isolated E. faecium strain 9): 1 µg/mL (≈ 1.3 µM) | MIC ([9]; clinically isolated E. faecium strain 10): 1 µg/mL (≈ 1.3 µM) | MIC ([9]; clinically isolated E. faecium strain 11): 4 µg/mL (≈ 5.2 µM) | MIC ([9]; clinically isolated E. faecium strain 13): 1 µg/mL (≈ 1.3 µM) | MIC ([9]; clinically isolated E. faecium strain 14): 0.5 µg/mL (≈ 0.65 µM) | MIC ([9]; clinically isolated E. faecium strain 15): 2 µg/mL (≈ 2.6 µM) | MIC (range over strains) ([9]; clinically isolated E. faecium (14 strains)): 0.5 to 4 µg/mL | MIC [10]: > 64 µg/mL | MIC [11]: > 64 µg/mL | MIC (range over strains) [12]: 0.5 to 8 µg/mL

CCCC(C)CC(C)CC(C)CC(C)/C=C(C)/C=C/C(O)C(C)C(=O)OC1C(O)CN2CC1NC[C@H]1O[C@@H](O[C@H]([C@H]3O[C@@H](n4ccc(=O)[nH]c4=O)[C@H](O)[C@@H]3OS(=O)(=O)O)[C@H]2C(=O)O)[C@H](O)[C@@H]1O (stereo partly drawn) [Sphaerimicin A]
MIC [13]: >128 µg/mL | MIC [14]: 4^d μg/mL | MIC ([14]; listed as sphaerimicin A): 4 µg/mL (≈ 4.1 µM) | MIC [15]: 2 µg/mL (≈ 2.05 µM) | MIC against Gram-positive bacteria [16]: 1 to 16 µg/mL | MIC [17]: >128 µg/mL | MIC ([18]; (footnote c)): 2^c μg/mL | MIC ([18]; E. faecium ATCC 19434): 2 µg/mL (≈ 2.05 µM) | MIC [19]: >128^e μg/mL | MIC [20]: >128 µg/mL | IC50 [21]: 0.0139 µM | IC50 for MraY [21]: 0.0135 µg/mL
